# The source made the active and inactive calls.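 How the source made its calls: active means fitted half-maximal potency for cell killing at or below the highest valid dose tested for that sample; inconclusive means flat curve with 30 to 70% viability loss, or unreliable fit; inactive means the rest.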
# System: not listed separately
# Assay: viability loss in A549 lung cancer cells – cell-based, CellTiter-Glo luminescence, dry powder, set 3, cytotoxicity control, dose response (AID 743146)
# Conditions: A549 viability, CellTiter-Glo ATP luminescence, 72 h; at 26 µM (top of the series)
row,SMILES,"activity change, negative = cytotoxicity"
1,CC(NC(=O)CCNC(=O)c1ccc(Cl)cc1)c1ccc2c(c1)OCO2 (stereo not drawn),7.31% (inactive)
2,CC(NC(=O)CCNC(=O)c1ccc(Cl)cc1)c1ccc(F)cc1 (stereo not drawn),1.56% (inactive)
3,O=C(CNC(=O)c1ccc(Cl)c(Cl)c1)N[C@@H]1CCCc2ccccc21,-1.02% (inactive)
4,O=C(NC1CCOc2ccccc21)C1CCCN(C(=O)c2ccc(Cl)cc2)C1 (stereo not drawn),11.1% (inactive)
5,O=C(CCNC(=O)c1ccc(F)cc1)N[C@@H]1CCCc2ccccc21,-10.3% (inactive)
6,O=C(CCNC(=O)c1ccccc1)N[C@@H]1CCCc2ccccc21,-10.3% (inactive)
7,O=C(NC1CCc2ccccc21)C1CCCN(C(=O)c2ccc(Cl)cc2)C1 (stereo not drawn),-1.86% (inactive)
8,O=C(CCCNC(=O)c1ccc(OC(F)(F)F)cc1)N[C@@H]1CCCc2ccccc21,4.74% (inactive)
9,O=C(CNC(=O)c1ccc(OC(F)(F)F)cc1)N[C@@H]1CCCc2ccccc21,8.39% (inactive)
10,CC(CC(=O)NC1CCCc2ccccc21)NC(=O)c1ccccc1 (stereo not drawn),0.372% (inactive)
11,COc1ccccc1C(=O)NCCC(=O)NC1CCCc2ccccc21 (stereo not drawn),5.71% (inactive)
12,O=C(Cc1ccc(Cl)cc1)NCCC(=O)N[C@@H]1CCCc2ccccc21,-2.28% (inactive)
13,CC(C)(C)OC(=O)NCCC(=O)N[C@@H]1CCCc2ccccc21,6.05% (inactive)
14,CC(c1ccccc1)N(C)C(=O)CCNC(=O)c1ccc(Cl)cc1 (stereo not drawn),14% (inactive)
15,CC(C)(C)OC(=O)NCCC(=O)N[C@H]1CCCc2ccccc21,-0.649% (inactive)
16,C[C@@H](NC(=O)CCNC(=O)c1ccc(Cl)cc1)c1ccccc1,-3.03% (inactive)

row,SMILES,"activity change, negative = cytotoxicity"
1,O=C(CCNC(=O)c1ccc(Cl)cc1)NC1CCCCC1,8.46% (inactive)
2,O=C(CCCNC(=O)c1ccc(Cl)cc1)N[C@@H]1CCCc2ccccc21,-5.3% (inactive)
3,O=C(CNC(=O)c1ccc(C(F)(F)F)cc1)N[C@@H]1CCCc2ccccc21,11% (inactive)
4,CC(NC(=O)C1CCCN(C(=O)c2ccc(Cl)cc2)C1)c1ccccc1 (stereo not drawn),5.97% (inactive)
5,O=C(CCCNC(=O)c1ccc(Cl)c(Cl)c1)N[C@@H]1CCCc2ccccc21,-2.59% (inactive)
6,CC(=O)NCCC(=O)N[C@@H]1CCCc2ccccc21,4.17% (inactive)
7,CN(C(=O)CCNC(=O)c1ccc(F)cc1F)C1CCCc2ccccc21 (stereo not drawn),8.93% (inactive)
8,COc1ccccc1C(C)NC(=O)CCNC(=O)c1ccc(Cl)cc1 (stereo not drawn),10% (inactive)
9,Cc1cccc(C(=O)NCCC(=O)NC2CCCc3ccccc32)c1 (stereo not drawn),9.52% (inactive)
10,O=C(CCn1cnc2ccccc2c1=O)NC1CCCc2ccccc21 (stereo not drawn),-2.5% (inactive)
11,O=C(CCCNC(=O)c1ccc(C(F)(F)F)cc1)N[C@@H]1CCCc2ccccc21,-7.77% (inactive)
12,O=C(CCNC(=O)c1ccc(Cl)cc1)N[C@@H]1CCc2ccccc21,0.571% (inactive)
13,O=C(CNC(=O)c1ccc(Cl)cc1)N[C@@H]1CCCc2ccccc21,-3.21% (inactive)
14,NCCC(=O)N[C@@H]1CCCc2ccccc21,11.5% (inactive)
15,CC(CC(=O)N(C)C1CCCc2ccccc21)NC(=O)c1ccccc1 (stereo not drawn),-7.34% (inactive)
16,O=C(CCNC(=O)c1ccccc1Cl)NC1CCCc2ccccc21 (stereo not drawn),-2% (inactive)

# System: A549 viability, CellTiter-Glo ATP luminescence, 72 h
# Assay: as above
# Conditions: not given
row,SMILES,AC50
1,O=C(CCNC(=O)c1ccc(Cl)cc1)NC1CCCc2ccccc21 (stereo not drawn),26 µM

# From PubChem BioAssay AID743146 (Broad Institute, 2013)
